The source of these data is the METLIN SMRT retention time set (Domingo-Almenara et al. 2019).

The nature of this data set: gradient 5% acetonitrile 3 min, to 50% in 2 min, to 85% in 15 min, held 3 min, 100 µL/min. The settings on record: column: Zorbax Extend-C18 2.1 x 50 mm; eluents: water / acetonitrile, 0.1% formic acid. The method, boiled down:
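Each retention time is based on an adduct peak selected computationally and verified by manual inspection. Measurements used HPLC–quadrupole time-of-flight mass spectrometry in positive and negative ionization mode on mixtures of ~100 pure standards. Chromatography ran on a Zorbax Extend-C18 column (2.1 × 50 mm, 1.8 μm) at 100 μL/min with water and acetonitrile, each containing 0.1% formic acid, and dead and dwell volumes of 40 μL and 900 μL.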
Consider `COc1cccc(CNC(=O)CCc2nc3c(C)cccc3c(=O)n2C)c1OC`, for which the RP-LC retention time was 791 s.

`O=C(Cn1c(=O)oc2ccccc21)N1CCC(c2noc(-c3ccncc3)n2)C1` (stereo not given): the RP-LC retention time was determined as 712 s.

In turn, `O=C(Cn1cnc2nc3c(cc2c1=O)CCCC3)Nc1cccc2c1CCCC2` returned an RP-LC retention time of 808 s.

In turn, `CSc1ccc(NC(=O)C2CCN(c3cncnc3N3CCOCC3)CC2)cc1` had an RP-LC retention time of 669 s.

The compound `Cc1cc(C)n(-c2ccnc(N3CCC(C(=O)NCCN4CCCC4)CC3)n2)n1` yielded an RP-LC retention time of 587 s.

As for `N#Cc1ccc(Cl)cc1NC(=O)C(=O)NCC1CCCO1` (stereo not given), the RP-LC retention time came out at 759 s.

`Cc1cc(C)cc(NC(=O)Cc2nnc(-c3cnccn3)o2)c1` returned an RP-LC retention time of 729 s.

The compound `Cc1noc(CNC(=O)C2CCN(C(=O)c3csc(-c4ccccc4)n3)CC2)n1` registered an RP-LC retention time of 650 s.

`Cc1ccc(Sc2c(-c3ccccc3)nc3ncccn23)cc1` came in with an RP-LC retention time of 1040 s.

In the case of `Cc1noc([C@@H]2CN(Cc3ccc(Cl)cc3F)C[C@H]2CO)n1`, the RP-LC retention time is 600 s.

As for `CC(C)(C)c1ccc(C(=O)Nc2nnc(C3CC(=O)N(c4ccc(F)cc4)C3)o2)cc1` (stereo not given), the RP-LC retention time came out at 872 s.

With `Cc1cc(=O)n(CC(=O)Nc2ccc(F)c(F)c2)c(N2CCOCC2)n1`, the RP-LC retention time came to 687 s.

For the compound `CC(C)n1cnc(S(=O)(=O)N2CCC(C(=O)NCc3ccc(N(C)C)cc3)CC2)c1`, the RP-LC retention time stood at 589 s.

Compound `COc1ccc(-c2csc(C)n2)cc1S(=O)(=O)N1CC=C(c2ccccc2)CC1` came in with an RP-LC retention time of 1130 s.

Regarding `CC(C)NC(=O)C(=O)c1c(-c2ccccc2)[nH]c2ccccc12`, the RP-LC retention time came to 776 s.

Take `Cn1nc(C(=O)Nc2ccccc2)c2c1CCN(C(=O)CCC(=O)NC1CC1)C2`: the RP-LC retention time was 678 s.

Consider `CN1CCN(C(=O)CSc2nccnc2Sc2ccccc2)CC1`, for which the RP-LC retention time is 637 s.

`CC(C)n1cc(S(=O)(=O)Nc2cccc(Cl)c2)c2cccnc21` showed an RP-LC retention time of 946 s.

In turn, `COc1ccccc1CNc1nccc(-n2nc(C)cc2C)n1` yielded an RP-LC retention time of 840 s.

Turning to `Cc1nn(-c2ccc(C(=O)NCc3cccs3)cc2)c2c1C(=O)CC(C)(C)C2`, the RP-LC retention time stood at 841 s.

`O=C(c1cc(Cl)ccc1F)N1CCC(c2nc(C3CC3)n[nH]2)CC1` registered an RP-LC retention time of 611 s.

`COc1ccc(-c2cc(C(=O)Nc3ccc(F)cc3)sn2)cc1`: the RP-LC retention time came out at 1090 s.

In turn, `CSc1cccc(NC(=O)N2CCC(CC(=O)N3CCCCC3)CC2)c1` yielded an RP-LC retention time of 789 s.

Consider `COCCNC(=O)c1ccc(CS(=O)Cc2ccccc2Cl)o1` (stereo not given), for which the RP-LC retention time was found to be 664 s.

Compound `Cc1nc(Nc2ncc3c(n2)CCCC3=O)nc2c(C)cccc12` yielded an RP-LC retention time of 620 s.

Compound `NC(=O)c1ccccc1NC(=O)C1CCN(C(=O)c2ccccc2F)CC1` had an RP-LC retention time of 669 s.

`Cc1cc(-c2nnc(C3CCC3)o2)c(C)n1CC(=O)NCc1cccc(C(F)(F)F)c1` yielded an RP-LC retention time of 937 s.

For `Cc1ccc(-c2cc(NC(=O)c3cccc(N(C)C)c3)on2)s1`, the RP-LC retention time was found to be 1050 s.

Turning to `O=C(NCc1ccc(F)cc1F)C1CCc2nc(N3CCOCC3)ncc2C1` (stereo not given), the RP-LC retention time amounted to 682 s.

The compound `CN(CC1CCOCC1)S(=O)(=O)c1cccc(Cl)c1` yielded an RP-LC retention time of 876 s.

In turn, `CCCN1C(=O)C(CC(=O)NCCOC)Sc2ncccc21` (stereo not given) had an RP-LC retention time of 632 s.

Compound `COc1ccc(N2C(=O)C3N=NN(Cc4nc(-c5ccc(C)cc5)no4)C3C2=O)cc1OC` (stereo not given) showed an RP-LC retention time of 915 s.

In turn, `CCc1ccc(S(=O)(=O)N2CCC3(CC2)NCCN=C3NCc2ccc(F)c(Cl)c2)cc1` had an RP-LC retention time of 831 s.

For the compound `Cc1ccc(Cn2nc(-c3nc(C(C)(C)C)no3)ccc2=O)cc1`, the RP-LC retention time amounted to 1130 s.

As for `Cc1cc(C)cc(NC(=O)c2cn(-c3cc(N4CCCC4)ncn3)cn2)c1`, the RP-LC retention time came to 972 s.

`CC(C)Cc1nc(CNC(=O)c2coc(C3CC3)n2)no1` showed an RP-LC retention time of 808 s.

`CCOc1ccccc1CNC(=O)C1CCCN(c2nnc(C)c3c(C)n(-c4ccccc4)nc23)C1` (stereo not given) came in with an RP-LC retention time of 774 s.

`CCc1noc(-c2cccnc2N2CCCN(Cc3cccc(F)c3)CC2)n1` had an RP-LC retention time of 660 s.

With `CCC(C)(C)NC(=O)CN1C(=O)CCCc2cc(S(=O)(=O)N3CCC(C)CC3)ccc21`, the RP-LC retention time came out at 963 s.

In turn, `CCC1CCCCN1CCCNC(=O)CCCn1c(=O)c2cccn2c2ccccc21` (stereo not given) came in with an RP-LC retention time of 641 s.

The compound `Cc1ccc(NC(=O)N2CCC3(C2)c2nc[nH]c2CCN3C)cc1` (stereo not given) yielded an RP-LC retention time of 554 s.

For `O=C(OCc1nc2ccccc2s1)c1ccc([N+](=O)[O-])s1`, the RP-LC retention time stood at 970 s.

`O=C(NCCc1n[nH]c(Cc2cccc(F)c2)n1)c1ccc2c(c1)OCO2` gave an RP-LC retention time of 673 s.

Compound `CCc1cccc(C)c1NC(=O)C1CCN(S(=O)(=O)c2c(C)nn(-c3ccccc3)c2C)CC1` returned an RP-LC retention time of 976 s.

In turn, `Cc1noc(C)c1CN1CCN(C(=O)c2cc(F)cc(F)c2)CC1` showed an RP-LC retention time of 563 s.

In turn, `CC(C)c1cc(C(=O)Nc2cccc(C#N)c2)nc2ccnn12` yielded an RP-LC retention time of 1030 s.

On to `CCn1c(=O)sc2cc(S(=O)(=O)N3CCC(C(=O)Nc4ccccc4F)CC3)ccc21`, for which the RP-LC retention time turned out to be 899 s.

In turn, `CCOC(=O)c1ccc(Nc2ncnc3c2ncn3CC)cc1` displayed an RP-LC retention time of 760 s.

With `COc1ccc(S(=O)(=O)NC2CCN(C(=O)CCc3c[nH]c4ccccc34)CC2)cc1`, the RP-LC retention time came to 788 s.

For `Cc1noc(C)c1S(=O)(=O)N1CC(n2cc(C(=O)NCC3CC3)nn2)C1`, the RP-LC retention time came out at 757 s.

In turn, `Cc1ccc(NC(=O)Cn2cnc3c(sc4nc(-c5ccccc5)ccc43)c2=O)c(Cl)c1` registered an RP-LC retention time of 1120 s.

`C=CCN(Cc1nc(-c2cccc(C)c2)no1)C(=O)Nc1cccc(C)c1` displayed an RP-LC retention time of 1090 s.

For the compound `CCCNC(=O)Cn1c(=O)cc(-c2nc(C(C)C)no2)c2ccccc21`, the RP-LC retention time was 835 s.

As for `Cc1ccc(S(=O)(=O)N2CCCC(Cn3c(C4CC4)nc4cccnc43)C2)cc1F` (stereo not given), the RP-LC retention time came to 819 s.

For `O=C(Nc1cc(F)ccc1F)c1c(O)c2cccnc2n(-c2ccc(F)cc2)c1=O`, the RP-LC retention time stood at 1270 s.

For the compound `CCc1ccccc1NC(=O)N1CCC(c2cc(N)on2)CC1`, the RP-LC retention time stood at 751 s.

As to `O=C(NC1CCN(c2cc(-c3ccc(Cl)cc3)[nH]n2)C1)c1cccc(Br)c1` (stereo not given), the RP-LC retention time is 870 s.

As to `COc1cccc(N2CCN(C(=O)Cn3ccc4c(SCc5ccc(F)cc5)nccc43)CC2)c1`, the RP-LC retention time came to 795 s.

In turn, `O=C(Nc1ccc(F)c(Cl)c1)C1CCN(C(=O)C2Sc3ccccc3NC2=O)CC1` (stereo not given) came in with an RP-LC retention time of 826 s.

Regarding `CCN1CCN(CCCNc2nc(-c3ccc(Cl)cc3)nc3ccccc23)CC1`, the RP-LC retention time turned out to be 577 s.
